Test results taken from patent US20060263351A1, “Methods and compositions for protection against thrombolysis associated reperfusion injury” (The General Hospital Corporation, priority 2002, published 2006).
“Also recorded” adds a separate entry of the source.

Experiments:
MMP-9 [1] = settings: rats pre-treated intravenously with U0126 vs saline, 2 hr focal ischemia
Text: In this investigation, rats were pre-treated with either saline or U0126 intravenously, then subjected to 2 hr focal ischemia. U0126 inhibits MEK, which is the upstream kinase that activates ERK.

MMP-9 [2] = test: Gelatin zymography of brain after embolic focal ischemia, MMP-9; assay type: in vivo, rat; settings: tPA 10 mg/kg, 6 hrs post-ischemia; 12 hrs after embolic focal ischemia; vs saline
Text: (§1) The use of BB-94 provided pharmacologic evidence that MMPs were involved in tPA-induced hemorrhage. The role of tPA in further increasing MMP levels was investigated (Sumii, T, E. H. Lo, Stroke 33:831-836, 2002; Aoki, T., et al., Stroke 33:2711-2717, 2002). At 12 hrs after embolic focal ischemia in rats, gelatin zymograms show an upregulation in MMP-9, as expected (FIG. 2A). […] This is an important point since MMP-9 is already produced in ischemic brain. The relevance of tPA-induced MMP-9 is dependent on how much more is released.

MMP-9 [3] = test: tPA-induced MMP-9 production in wild-type murine embryonic fibroblasts (MEF-1); assay type: cell-based, mouse; settings: wild-type MEF-1 cells
[4] = tested on: primary co-cultures of neurons/astrocytes from rat brain; test: Cytotoxicity assay of LDH release, neuron/astrocyte co-cultures; assay type: cell-based; settings: different doses of tPA
Protocol: (§2) Different doses of tPA were added to primary co-cultures of neurons/astrocytes from rat brain, or microvessel endothelial cells from human brain. Cytotoxicity assays of LDH release confirmed that these doses were not toxic, consistent with our previous published experience using tPA in vitro (Wang X, et al., Neurosci Lett 274:79-82, 1999). In addition, these doses are within range of plasma concentrations in patients treated with intravenous tPA (NINDS rt-PA Stroke Study Group, New Engl J Med 333:1581-1587, 1995).

MMP-2 [5] = test: Gelatin zymography of brain after embolic focal ischemia, MMP-2; assay type: in vivo, rat; settings: tPA 10 mg/kg, 6 hrs post-ischemia; 12 hrs after embolic focal ischemia; vs saline
Text: as §1

MMP-2 [6] = test: Zymography of conditioned media, brain microvessel endothelial cells, MMP-2; assay type: cell-based; settings: human brain endothelial cells
Protocol: as §2

MMP-9 [7] = test: Zymography of conditioned media, neuron/astrocyte co-cultures, MMP-9; assay type: cell-based, rat; settings: 24 hr exposure to tPA
Protocol: as §2

MMP-9 [8] = test: Gelatin zymography of brain after mechanical (filament) transient focal ischemia, MMP-9; assay type: in vivo, rat; settings: 2 hr transient filament occlusion, reperfused 3, 6, or 24 hrs; tPA 10 mg/kg at onset of reperfusion; vs saline
Protocol: Similar findings were obtained in mechanical (filament) models of focal ischemia. Rats were subjected to transient occlusions for 2 hrs, then reperfused for 3, 6, or 24 hrs. Saline controls were compared with rats treated with 10 mg/kg of tPA at the onset of reperfusion.

[9] = tested on: microvessel endothelial cells from human brain; test: Cytotoxicity assay of LDH release, brain endothelial cells; assay type: cell-based; settings: different doses of tPA
Protocol: as §2

p38 MAP kinase = test: Western blot of phospho-p38 after tPA exposure in vitro; assay type: cell-based; settings: 40 μg/ml tPA; rat cultures
Text: (§3) The presence of MMP upregulation following activation of various signaling pathways after tPA binds to LRP, was investigated. In this investigation, MAP kinase was examined.

ERK = test: Western blot of phospho-ERK after tPA exposure in vitro; assay type: cell-based; settings: 40 μg/ml tPA; rat cultures
Text: as §3

MMP-9 [10] = test: Zymography of conditioned media, brain microvessel endothelial cells, MMP-9; assay type: cell-based, human
Protocol: as §2

MMP-9 [11] = test: tPA-induced MMP-9 production in LRP knockout murine embryonic fibroblasts (PEA-13); assay type: cell-based, mouse; settings: LRP knockout PEA-13 cells

| Compound | ischemic upregulation of MMP-9 (MMP-9 [1]) | MMP-9 levels in brain (gelatin zymograms) (MMP-9 [2]) | MMP-9 production (MMP-9 [3]) | cytotoxicity (LDH release) [4] | MMP-2 levels in brain (gelatin zymograms) (MMP-2 [5]) | dose- and time-dependence of tPA-induced MMP-2 release (MMP-2 [6]) | secretion of MMP-9 (MMP-9 [7]) | upregulation of MMP-9 in brain (gelatin zymograms) (MMP-9 [8]) | cytotoxicity (LDH release) [9] | activation of p38 MAP kinase pathway (phospho-p38) (p38 MAP kinase) | activation of ERK pathway (phospho-ERK) (ERK) | secretion of MMP-9 (MMP-9 [10]; cerebral microvessel endothelial cells, 24 hr exposure to tPA) | dose- and time-dependence of tPA-induced MMP-9 release (MMP-9 [10]; human brain endothelial cells) | MMP-9 response (MMP-9 [11]) |
| --- | --- | --- | --- | --- | --- | --- | --- | --- | --- | --- | --- | --- | --- | --- |
| N#CC(=C(/N)Sc1ccccc1N)/C(C#N)=C(\N)Sc1ccccc1N [U0126] | can attenuate ischemic upregulation of MMP-9; also recorded: attenuated MMP-9 levels | – | – | – | – | – | – | – | – | – | – | – | – | – |
| tPA: tissue plasminogen activator (alteplase), thrombolytic agent | – | more than doubled the production of MMP-9; also recorded: doubling of MMP-9 | induced MMP-9 production | not toxic | slightly increased but the difference did not reach statistical significance | clear dose- and time-dependence | clearly induced secretion of MMP-9; also recorded: increased MMP-9 secretion | clearly amplified the upregulation of MMP-9; also recorded: MMP-9 is amplified | not toxic | activation; also recorded: rapidly activated | activation of ERK; also recorded: rapidly activated | clearly induced secretion of MMP-9; also recorded: increased MMP-9 secretion | clear dose- and time-dependence | no tPA-induced MMP-9 response; also recorded: no significant response |
